Experimental data taken from patent US20210052703A1 (SHANGHAI BENEMAE PHARMACEUTICAL CORPORATION, priority 2018, published 2021).

System: Sprague-Dawley (SD) rats
Assay: stomach emptying in male and female SD rats, various dosages (Example 6)
Conditions: for Propelling Rate of Carbon Powder / % of Gastric Remains / Gross Weight of Stomach / Propelling Distance of Carbon Powder: X ± SE
[1] = female rats, 12.5 μg/kg subcutaneous
[2] = female rats, 15 μg/kg subcutaneous
[3] = female rats, 30 μg/kg subcutaneous
[4] = female rats, 45 μg/kg subcutaneous
[5] = female rats, 60 μg/kg subcutaneous
[6] = male rats, 10 μg/kg subcutaneous
[7] = male rats, 12.5 μg/kg subcutaneous
[8] = male rats, 15 μg/kg subcutaneous
[9] = male rats, 30 μg/kg subcutaneous
[10] = male rats, 45 μg/kg subcutaneous
[11] = male rats, 60 μg/kg subcutaneous

Experimental: Five minutes after subcutaneous injection, gavage was conducted using 5% carbon powder suspension (in 2% carboxymethylcellulose solution) at 1.5 ml/100 g body weight. […] The stomach was wiped dry with filter paper and weighed for the gross weight of the stomach. Then the content of the stomach was removed and the stomach was weighed for the net weight. The respective distance from the pyloric sphincter to the front of carbon powder suspension and to the distal end of the large intestine was measured. • propelling distance of carbon powder in the intestine (cm)=distance from pylorus to the proximal end of carbon powder; • mass of carbon powder gavaged=concentration of carbon powder suspension×volume; • propelling rate of carbon powder (%)=propelling distance of carbon powder in the intestine (cm)/entire length of intestine (cm)×100%; • rate of gastric remains (%)=(gross weight of stomach−net weight of stomach)/mass of carbon powder gavaged×100%.
The animals were fasted 29-33 hours before injection, and the animals were not given any water 5-7 hours before injection. Injections were made by subcutaneous administration to the neck, at 0.1 ml/100 g body weight.

Q: How did the “Propelling Rate of Carbon Powder” value (female rats, 10 μg/kg subcutaneous) turn out when CC[C@H](C)[C@H](NC(=O)[C@H](Cc1ccccc1)NC(=O)[C@H](CCC(=O)O)NC(=O)[C@H](CCCCN)NC(=O)[C@H](C)NC(=O)[C@H](C)NC(=O)[C@H](CCC(N)=O)NC(=O)CNC(=O)[C@H](CCC(=O)O)NC(=O)[C@H](CC(C)C)NC(=O)[C@H](Cc1ccc(O)cc1)NC(=O)[C@H](CO)NC(=O)[C@H](CO)NC(=O)[C@@H](NC(=O)[C@H](CC(=O)O)NC(=O)[C@H](CO)NC(=O)[C@@H](NC(=O)[C@H](Cc1ccccc1)NC(=O)[C@@H](NC(=O)CNC(=O)[C@H](CCC(=O)O)NC(=O)[C@H](C)NC(=O)[C@@H](N)Cc1cnc[nH]1)[C@@H](C)O)[C@@H](C)O)C(C)C)C(=O)N[C@@H](C)C(=O)N[C@@H](Cc1c[nH]c2ccccc12)C(=O)N[C@@H](CC(C)C)C(=O)N[C@H](C(=O)N[C@@H](CCCCN)C(=O)NCC(=O)N[C@@H](CCCNC(=N)N)C(=O)O)C(C)C [Beinaglutide] was run?
A: 49.92 ± 2.97 %

Q: What about the “% of Gastric Remains” value [1] of the same molecule?
A: 47.54 ± 5.22%

Q: And the “Gross Weight of Stomach” value [1]?
A: 2.03 ± 0.10 g

Q: And the “Propelling Distance of Carbon Powder” value [1]?
A: 49.50 ± 2.54 cm

Q: And the “Propelling Rate of Carbon Powder” value [1]?
A: 46.83 ± 2.41 %

Q: And the “% of Gastric Remains” value [2]?
A: 51.86 ± 6.07%

Q: What about the “Gross Weight of Stomach” value [2] of the same molecule?
A: 2.18 ± 0.11 g

Q: What about the “Propelling Distance of Carbon Powder” value [2] of the same molecule?
A: 44.50 ± 2.97 cm

Q: And the “Propelling Rate of Carbon Powder” value [2]?
A: 41.26 ± 2.63 %

Q: What about the “% of Gastric Remains” value [3] of the same molecule?
A: 73.35 ± 16.68 %

Q: And the “Gross Weight of Stomach” value [3]?
A: 2.59 ± 0.38 g

Q: What about the “Propelling Distance of Carbon Powder” value [3] of the same molecule?
A: 33.96 ± 5.58 cm

Q: And the “Propelling Rate of Carbon Powder” value [3]?
A: 32.15 ± 5.54 %

Q: And the “% of Gastric Remains” value [4]?
A: 120.95 ± 9.48 %

Q: And the “Gross Weight of Stomach” value [4]?
A: 3.55 ± 0.21 g

Q: What about the “Propelling Distance of Carbon Powder” value [4] of the same molecule?
A: 25.06 ± 5.91 cm

Q: What about the “Propelling Rate of Carbon Powder” value [4] of the same molecule?
A: 23.18 ± 5.46 %

Q: What about the “% of Gastric Remains” value [5] of the same molecule?
A: 141.28 ± 8.90 %

Q: What about the “Gross Weight of Stomach” value [5] of the same molecule?
A: 3.90 ± 0.20 g

Q: What about the “Propelling Distance of Carbon Powder” value [5] of the same molecule?
A: 15.71 ± 4.58 cm

Q: What about the “Propelling Rate of Carbon Powder” value [5] of the same molecule?
A: 14.36 ± 4.08 %

Q: What about the “human dose corresponding to minimal effective dosage” value (from female rats 10 μg/kg) of the same molecule?
A: 0.11 mg/day

Q: What about the “human dose corresponding to minimal effective dosage” value (from male rats 30 μg/kg) of the same molecule?
A: 0.33 mg/day

Q: And the “minimal effective dosage (inhibition of stomach emptying)” value (male rats)?
A: 30 µg/kg

Q: And the “% of Gastric Remains” value [6]?
A: 39.93 ± 6.46%

Q: And the “Gross Weight of Stomach” value [6]?
A: 2.39 ± 0.19 g

Q: And the “Propelling Distance of Carbon Powder” value [6]?
A: 55.20 ± 2.69 cm

Q: And the “Propelling Rate of Carbon Powder” value [6]?
A: 50.91 ± 2.84%

Q: What about the “% of Gastric Remains” value [7] of the same molecule?
A: 38.98 ± 3.50%

Q: And the “Gross Weight of Stomach” value [7]?
A: 2.36 ± 0.09 g

Q: And the “Propelling Distance of Carbon Powder” value [7]?
A: 54.96 ± 3.96 cm

Q: What about the “Propelling Rate of Carbon Powder” value [7] of the same molecule?
A: 50.36 ± 3.34%

Q: And the “% of Gastric Remains” value [8]?
A: 40.22 ± 7.06%

Q: What about the “Gross Weight of Stomach” value [8] of the same molecule?
A: 2.42 ± 0.20 g

Q: What about the “Propelling Distance of Carbon Powder” value [8] of the same molecule?
A: 52.27 ± 3.75 cm

Q: What about the “Propelling Rate of Carbon Powder” value [8] of the same molecule?
A: 48.22 ± 3.05%

Q: And the “% of Gastric Remains” value [9]?
A: 58.23 ± 7.38 %

Q: And the “Gross Weight of Stomach” value [9]?
A: 2.92 ± 0.23 g

Q: And the “Propelling Distance of Carbon Powder” value [9]?
A: 42.82 ± 2.81 cm

Q: What about the “Propelling Rate of Carbon Powder” value [9] of the same molecule?
A: 38.55 ± 2.81 %

Q: And the “% of Gastric Remains” value [10]?
A: 97.66 ± 9.95 %

Q: What about the “Gross Weight of Stomach” value [10] of the same molecule?
A: 3.90 ± 0.27 g

Q: And the “Propelling Distance of Carbon Powder” value [10]?
A: 15.73 ± 4.30 cm

Q: And the “Propelling Rate of Carbon Powder” value [10]?
A: 14.67 ± 4.13 %

Q: And the “% of Gastric Remains” value [11]?
A: 110.28 ± 7.79 %

Q: And the “Gross Weight of Stomach” value [11]?
A: 4.21 ± 0.19 g

Q: And the “Propelling Distance of Carbon Powder” value [11]?
A: 14.64 ± 4.32 cm

Q: And the “Propelling Rate of Carbon Powder” value [11]?
A: 12.91 ± 3.68 %
